Structures can show the parent of a compound that is named as a salt.
How the values were obtained:
souris = assay: Acute toxicity, lethal dose DL0 after oral administration; format: in vivo; conditions: mouse, maximal dose causing no mortality in 8 days
Text: 4) Etude de la toxicité aiguë
On a évalué les doses létales DLo des différents composés testés après administration par voie orale chez la souris.
On appelle DLo la dose maximale ne provoquant aucune mortalité en 8 jours.

[1] = tested on: rats mâles de souche WISTAR; assay: Hypotensive activity in anaesthetised rats (carotid arterial pressure, intravenous administration); format: in vivo; conditions: anaesthetised Wistar rat, versus initial control pressure
Method: 1) Détermination de l'activité hypotensive
L'activité hypotensive a été étudiée sur des rats mâles de souche WISTAR pesant 300 g environ et anesthésiés au nembutal (50 mg/kg par voie intraveineuse).
Le produit testé a été administré par voie intraveineuse dans la veine jugulaire.
La pression artérielle càrotidienne a été mesurée avant et après administration du produit testé.
Le tableau ci-après indique les variations exprimées en pourcentage de la pression artérielle après- administration du produit testé par rapport à la pression artérielle témoin initiale.

CN[C@@H]1Cc2c[nH]c3cccc(c23)[C@H]1O (racemic) [Exemple 7, Chlorhydratede trans 4RS 4-(méthylamino) 1,3,4,5-tétrahydro benz(c,d) indol-5-0l] gave a DL0 (souris) of over 400 mg/kg.
CC(C)N[C@@H]1Cc2c[nH]c3cccc(c23)[C@H]1O (racemic) [Exemple 10, Chlorhydratede trans 4RS 4-(isopropylamino) 1,3,4,5-tétrahydro benz(c,d) indol-5-0l] was tested, and the “Variation % de la pression artérielle 30 minutes après l'administration” value ([1]; dose 1 mg/kg) was -24% and the DL0 (souris) was 100 mg/kg.
In the case of CCCN[C@@H]1Cc2c[nH]c3cccc(c23)[C@H]1O (racemic) [Exemple 9, Chlorhydratede trans 4RS 4-(propylamino) 1,3,4,5-tétrahydro benz(c,d) indol-5-0l], the “Variation % de la pression artérielle 30 minutes après l'administration” value ([1]; dose 1 mg/kg) is reported as -30% and the DL0 (souris) is reported as 60 mg/kg.
In the case of CCN[C@@H]1CC2CNc3cccc(c32)[C@H]1O (mixture of isomers) [Exemple 3, Fumarate neutrede trans 4RS 4-(éthylamino) 1,2,2a,3,4,5-hexahydro benz(c,d) indol-5-ol], the DL0 (souris) is reported as over 400 mg/kg.
“trans 4RS 4-(propylamino) 1,2,2a,3,4,5-hexahydrobenz(c,d) indol-5--ol [Exemple 4]” showed a DL0 (souris) of 200 mg/kg.
CN[C@@H]1CC2CNc3cccc(c32)[C@H]1O (mixture of isomers) [Exemple 2, Fumarate neutrede trans 4RS 4-(méthylamino) 1,2,2a,3,4,5-hexahydro benz(c,d) indol-5-0l] showed a DL0 (souris) of over 800 mg/kg.
With “trans 4RS 4-(isopropylamino) 1,,2a,3,4,5-hexahydrobenz(c,d) indol-5-ol [Exemple 5]” the DL0 (souris) was 200 mg/kg.
In the case of N[C@@H]1CC2CNc3cccc(c32)[C@H]1O (mixture of isomers) [Exemple 1, dichlorhydratede trans 4RS 4-amino 1,2,2a.3,4,5-hexahydro benz(c,d) indol-5-0l], the DL0 (souris) is reported as over 400 mg/kg.
For CCN[C@@H]1Cc2c[nH]c3cccc(c23)[C@H]1O (racemic) [Exemple 8, Chlorhydratede trans 4RS 4-(éthylamino) 1,3,4,5-tétrahydro benz(c,d) indol-5-0l], the “Variation % de la pression artérielle 30 minutes après l'administration” value ([1]; dose 0,1 mg/kg) was -13% and the DL0 (souris) was 80 mg/kg.
